Laboratory results taken from US20070032529A1, “Pyrazole compounds and their use as antidiabetes agents” (Japan Tobacco Inc., priority 2005, published 2007).
pIC50: −log10 of the molar value.

Target: T1, recombinant human liver glycogen phosphorylase (Homo sapiens, UniProt P06737)
T1 construct: made in house; host or cells: Sf9 insect cells (crude homogenate, diluted, used as the enzyme solution)
T1 sequence (P06737 1-847): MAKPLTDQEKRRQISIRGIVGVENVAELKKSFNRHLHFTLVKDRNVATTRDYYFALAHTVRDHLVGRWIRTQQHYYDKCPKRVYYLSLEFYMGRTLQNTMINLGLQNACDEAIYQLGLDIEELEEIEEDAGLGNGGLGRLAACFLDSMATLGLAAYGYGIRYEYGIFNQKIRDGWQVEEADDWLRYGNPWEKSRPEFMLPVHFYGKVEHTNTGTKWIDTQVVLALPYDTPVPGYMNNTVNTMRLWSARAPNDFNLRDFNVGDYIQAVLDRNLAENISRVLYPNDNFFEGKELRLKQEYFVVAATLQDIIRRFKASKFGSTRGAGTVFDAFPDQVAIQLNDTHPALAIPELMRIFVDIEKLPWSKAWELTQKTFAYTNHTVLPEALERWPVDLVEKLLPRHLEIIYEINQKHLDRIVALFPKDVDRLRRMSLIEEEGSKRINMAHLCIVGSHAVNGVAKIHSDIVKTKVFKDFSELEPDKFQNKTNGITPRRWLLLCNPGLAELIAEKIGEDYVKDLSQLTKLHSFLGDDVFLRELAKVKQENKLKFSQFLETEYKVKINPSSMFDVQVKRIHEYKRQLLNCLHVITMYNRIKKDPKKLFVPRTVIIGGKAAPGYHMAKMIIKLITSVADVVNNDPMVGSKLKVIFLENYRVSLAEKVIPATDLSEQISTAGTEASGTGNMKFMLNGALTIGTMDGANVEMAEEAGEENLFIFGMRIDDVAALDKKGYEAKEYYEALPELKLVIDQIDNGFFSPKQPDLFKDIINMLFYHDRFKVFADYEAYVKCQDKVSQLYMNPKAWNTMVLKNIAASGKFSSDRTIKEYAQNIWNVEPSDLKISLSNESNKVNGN
Assay: Measuring liver glycogen phosphorylase activity (forward reaction system, NADPH absorbance at 340 nm)
Type: biochemical
Conditions: for pIC50: enzyme inhibitory activity with respect to liver glycogen phosphorylase, class symbols; for inhibition at 0.3 µM: compound concentration 300 nmol (in parentheses)
Method: [Pharmacological Test] 1. Exemplary Test (1) Method for Measuring Liver Glycogen Phosphorylase Activity
The measurement of glycogen phosphorylase activity was carried out by a method using the forward reaction system.
The measurement of glycogen phosphorylase activity using the forward reaction system was carried out as follows. Glucose-1-phosphate prepared from glycogen by glycogen phosphorylase was converted into glucono-δ-lactone 6-phosphate through transphosphorylation and dehydrogenation using phosphoglucomutase and glucose-6-phosphate dehydrogenase (G6PDH). NADPH generated from NADP during the dehydrogenation by G6PDH was detected.
A homogenate of the Sf9 cells which expressed exogenously recombinant human liver glycogen phosphorylase was diluted with 100 mmol/LBES buffer solution (pH 6.8, containing 2 mmol/L EDTA) and the dilution was used as the enzyme solution of human liver glycogen phosphorylase. As the substrate, a phosphate buffer (containing 16 mmol/L KH2PO4, 24 mmol/L Na2HPO4) was used. A mixture of 8 U/mL phosphoglucomutase and 60 U/mL G6PDH was prepared in BES buffer solution. Buffer solution (containing 1.4 mmol/L NADP, 30 mmol/L MgCl2, 8 μmol/L glucose-1,6-diphosphate, 8 mg/mL glycogen, 40 mmol/LBES, 0.8 mmol/L EDTA) for reaction and a glucose solution (containing 75 mmol/L glucose, 100 mmol/LBES, 2 mmol/L EDTA) were prepared individually. The test compound was dissolved in 1% DMSO solution.
The enzymatic reaction was begun by adding 20 μL of the recombinant human liver glycogen phosphorylase solution and 20 μL of the mixture of phosphoglucomutase and G6PDH to the mixture of 20 μL of the glucose solution, 20 μL of the substrate, 100 μL of the buffer solution for reaction and 20 μL of the test compound solution. As control, 1% DMSO solution was added instead of the test compound. The mixture without the substrate was used as blank. The absorbance at 340 nm was measured immediately after the reaction started. The absorbance at 340 nm was measured again after reacting at room temperature for 75 minutes. The enzymatic activity is a value obtained by subtracting the blank variation in absorbance over 75 minutes from the variation in absorbance over 75 minutes.
The inhibition rate (%) of the test compound was calculated by the expression “(1-enzymatic activity of test compound/enzymatic activity of control)×100.”
A linear equation was determined from the two concentration points with the 50% inhibition rate therebetween, and the IC50 value was calculated from the concentration at the intersection of the line with the 50% inhibition rate.
“IC50” in the tables indicates the above-described enzyme inhibitory activity with respect to liver glycogen phosphorylase, and the activity to inhibit liver glycogen phosphorylase was represented as ++ when the IC50 value (nmol/L) was less than 100 nmol/L, as + when the IC50 value was between 100 nmol/L and 300 nmol/L. When IC50 is 300 nmol/L or more, an inhibition rate (%) at a certain concentration of the compound (I) of the present invention is shown in Tables. For example, when the inhibition rate is 20% at a concentration of 300 nmol, the rate is described as 20% (300).

[1] = read-out: inhibition rate (%) at a certain concentration

| pIC50 | SMILES | other results |
| --- | --- | --- |
| > 7.00 | O=C(NCc1cccnc1)c1cc(NC(=O)c2cc(F)c(F)cc2Cl)[nH]n1 [Example 1-1, 5-(2-chloro-4,5-difluoro-benzoylamino)-1H-pyrazole-3-carboxylic acid (pyridin-3-ylmethyl)-amide] |  |
| > 7.00 | Cc1nc(C)c(CNC(=O)c2cc(NC(=O)c3cc(F)c(F)cc3Cl)[nH]n2)o1 [Example 1-2-2, 5-(2-chloro-4,5-difluoro-benzoylamino)-1H-pyrazole-3-carboxylic acid (2,4-dimethyl-oxazol-5-ylmethyl)-amide p-toluenesulfonate] |  |
| > 7.00 | CCN(CC)C(=O)c1cc(NC(=O)c2cc(F)c(F)cc2Cl)[nH]n1 [Example 1-4] |  |
| > 7.00 | CCN(Cc1ccncc1)C(=O)c1cc(NC(=O)c2cc(F)c(F)cc2Cl)[nH]n1 [Example 1-5] |  |
| 6.52 to 7.00 | COCCN(C)C(=O)c1cc(NC(=O)c2cc(F)c(F)cc2Cl)[nH]n1 [Example 1-6] |  |
| 6.52 to 7.00 | CCN(CCOC)C(=O)c1cc(NC(=O)c2cc(F)c(F)cc2Cl)[nH]n1 [Example 1-7] |  |
| > 7.00 | O=C(NCc1ccccc1F)c1cc(NC(=O)c2cc(F)c(F)cc2Cl)[nH]n1 [Example 1-8] |  |
| > 7.00 | O=C(NCc1cccc(F)c1)c1cc(NC(=O)c2cc(F)c(F)cc2Cl)[nH]n1 [Example 1-9] |  |
| 6.52 to 7.00 | CN(C)c1ccccc1CNC(=O)c1cc(NC(=O)c2cc(F)c(F)cc2Cl)[nH]n1 [Example 1-10] |  |
| 6.52 to 7.00 | CCCN(C(=O)c1cc(NC(=O)c2cc(F)c(F)cc2Cl)[nH]n1)C1CCC(C(=O)OCC)CC1 (stereo not shown) [Example 1-11] |  |
| > 7.00 | COc1cccc(CNC(=O)c2cc(NC(=O)c3cc(F)c(F)cc3Cl)[nH]n2)c1OC [Example 1-13] |  |
| > 7.00 | COc1ccc(CNC(=O)c2cc(NC(=O)c3cc(F)c(F)cc3Cl)[nH]n2)c(OC)c1 [Example 1-14] |  |
| > 7.00 | COc1cc(CNC(=O)c2cc(NC(=O)c3cc(F)c(F)cc3Cl)[nH]n2)cc(OC)c1 [Example 1-16] |  |
| > 7.00 | COc1ccc(CNC(=O)c2cc(NC(=O)c3cc(F)c(F)cc3Cl)[nH]n2)cc1OC [Example 1-17] |  |
| > 7.00 | O=C(NCc1cc(F)ccc1F)c1cc(NC(=O)c2cc(F)c(F)cc2Cl)[nH]n1 [Example 1-20] |  |
| > 7.00 | O=C(NCc1ccc(F)c(F)c1)c1cc(NC(=O)c2cc(F)c(F)cc2Cl)[nH]n1 [Example 1-22] |  |
| > 7.00 | O=C(NCc1cc(F)cc(F)c1)c1cc(NC(=O)c2cc(F)c(F)cc2Cl)[nH]n1 [Example 1-23] |  |
| > 7.00 | O=C(NCc1ncccc1C(F)(F)F)c1cc(NC(=O)c2cc(F)c(F)cc2Cl)[nH]n1 [Example 1-27] |  |
| > 7.00 | O=C(NCc1cccc(C(F)(F)F)c1)c1cc(NC(=O)c2cc(F)c(F)cc2Cl)[nH]n1 [Example 1-28] |  |
| > 7.00 | O=C(NCc1ccc(C(F)(F)F)cc1)c1cc(NC(=O)c2cc(F)c(F)cc2Cl)[nH]n1 [Example 1-29] |  |
| > 7.00 | CC(C)(C)c1ccc(CNC(=O)c2cc(NC(=O)c3cc(F)c(F)cc3Cl)[nH]n2)cc1 [Example 1-30] |  |
| > 7.00 | O=C(NCc1cccnc1OCC(F)(F)F)c1cc(NC(=O)c2cc(F)c(F)cc2Cl)[nH]n1 [Example 1-32] |  |
| > 7.00 | CN(C)CCNC(=O)c1ccc(CNC(=O)c2cc(NC(=O)c3cc(F)c(F)cc3Cl)[nH]n2)cc1 [Example 1-33] |  |
| > 7.00 | CCc1ccc(CNC(=O)c2cc(NC(=O)c3cc(F)c(F)cc3Cl)[nH]n2)cc1 [Example 1-34] |  |
| > 7.00 | CC(C)c1ccc(CNC(=O)c2cc(NC(=O)c3cc(F)c(F)cc3Cl)[nH]n2)cc1 [Example 1-35] |  |

| pIC50 | SMILES | other results |
| --- | --- | --- |
| > 7.00 | O=C(NCc1c(F)cccc1Cl)c1cc(NC(=O)c2cc(F)c(F)cc2Cl)[nH]n1 [Example 1-36] |  |
| > 7.00 | COC(=O)CNC(=O)c1ccc(CNC(=O)c2cc(NC(=O)c3cc(F)c(F)cc3Cl)[nH]n2)cc1 [Example 1-43] |  |
| > 7.00 | COC(=O)CCNC(=O)c1ccc(CNC(=O)c2cc(NC(=O)c3cc(F)c(F)cc3Cl)[nH]n2)cc1 [Example 1-44] |  |
| > 7.00 | Cc1nc(CNC(=O)c2cc(NC(=O)c3cc(F)c(F)cc3Cl)[nH]n2)cs1 [Example 1-45] |  |
| > 7.00 | CC(=O)OCCN(CCNC(=O)c1ccc(CNC(=O)c2cc(NC(=O)c3cc(F)c(F)cc3Cl)[nH]n2)cc1)CCOC(C)=O [Example 1-47] |  |
| > 7.00 | O=C(NCCO)c1ccc(CNC(=O)c2cc(NC(=O)c3cc(F)c(F)cc3Cl)[nH]n2)cc1 [Example 1-48] |  |
| > 7.00 | CC(=O)OCCN(CCO)CCNC(=O)c1ccc(CNC(=O)c2cc(NC(=O)c3cc(F)c(F)cc3Cl)[nH]n2)cc1 [Example 1-49] |  |
| > 7.00 | O=C(NCc1nccs1)c1cc(NC(=O)c2cc(F)c(F)cc2Cl)[nH]n1 [Example 1-51] |  |
| > 7.00 | Cc1nc(CNC(=O)c2cc(NC(=O)c3cc(F)c(F)cc3Cl)[nH]n2)c(C)s1 [Example 1-53] |  |
| > 7.00 | O=C(NCc1csc(N2CCOCC2)n1)c1cc(NC(=O)c2cc(F)c(F)cc2Cl)[nH]n1 [Example 1-54] |  |
| > 7.00 | Cc1nn(C)c(C)c1CNC(=O)c1cc(NC(=O)c2cc(F)c(F)cc2Cl)[nH]n1 [Example 1-55] |  |
| > 7.00 | CN(C)c1nc(CNC(=O)c2cc(NC(=O)c3cc(F)c(F)cc3Cl)[nH]n2)cs1 [Example 1-57] |  |
| > 7.00 | Cn1cccc1CNC(=O)c1cc(NC(=O)c2cc(F)c(F)cc2Cl)[nH]n1 [Example 1-58] |  |
| > 7.00 | CC(C)(C)c1cnc(CNC(=O)c2cc(NC(=O)c3cc(F)c(F)cc3Cl)[nH]n2)s1 [Example 1-60] |  |
| > 7.00 | Cc1nn(-c2ccccc2)nc1CNC(=O)c1cc(NC(=O)c2cc(F)c(F)cc2Cl)[nH]n1 [Example 1-61] |  |
| > 7.00 | CC(C)(C)OC(=O)NCc1ccnc(CNC(=O)c2cc(NC(=O)c3cc(F)c(F)cc3Cl)[nH]n2)c1 [Example 1-62] |  |
| > 7.00 | Nc1ccccc1CNC(=O)c1cc(NC(=O)c2cc(F)c(F)cc2Cl)[nH]n1 [Example 1-65] |  |
| 6.52 to 7.00 | O=C(Nc1cc(C(=O)N(Cc2ccccc2)Cc2ccccc2)n[nH]1)c1cc(F)c(F)cc1Cl [Example 1-74] |  |
| > 7.00 | N#CC(NC(=O)c1cc(NC(=O)c2cc(F)c(F)cc2Cl)[nH]n1)c1ccccc1 (stereo not shown) [Example 1-75] |  |
| > 7.00 | O=C(NCC1CCCCC1)c1cc(NC(=O)c2cc(F)c(F)cc2Cl)[nH]n1 [Example 1-76] |  |
|  | O=C(Nc1cc(C(=O)N(CCO)c2ccccc2)n[nH]1)c1cc(F)c(F)cc1Cl [Example 1-77] | inhibition at 1 µM (compound concentration 1000 nmol (in parentheses), read-out: inhibition rate (%) at a certain concentration): 43.8% |
|  | O=C(NC1CCCCC1)c1cc(NC(=O)c2cc(F)c(F)cc2Cl)[nH]n1 [Example 1-79] | inhibition at 0.3 µM [1]: 23.3% |
|  | CN1CCC(N(C)C(=O)c2cc(NC(=O)c3cc(F)c(F)cc3Cl)[nH]n2)CC1 [Example 1-83] | inhibition at 0.3 µM [1]: 6.1% |
| > 7.00 | CCCCN(Cc1ccccc1)C(=O)c1cc(NC(=O)c2cc(F)c(F)cc2Cl)[nH]n1 [Example 1-85] |  |
